Experiments:
[1] = target: SARS-CoV-2 3CLpro (Severe acute respiratory syndrome coronavirus 2, UniProt P0DTD1); assay: biochemical
[2] = target: MERS-CoV 3CLpro (Middle East respiratory syndrome-related coronavirus, UniProt K9N7C7); assay: biochemical
[3] = target: SARS-CoV 3CLpro (Severe acute respiratory syndrome coronavirus, UniProt P0C6X7); assay: biochemical
[4] = target: HCoV-229E 3CLpro (Human coronavirus 229E, UniProt P0C6X1); assay: HCoV-229E 3CLpro inhibition assay (FRET); format: biochemical
HCoV-229E 3CLpro, sequence (P0C6X1 2966-3267): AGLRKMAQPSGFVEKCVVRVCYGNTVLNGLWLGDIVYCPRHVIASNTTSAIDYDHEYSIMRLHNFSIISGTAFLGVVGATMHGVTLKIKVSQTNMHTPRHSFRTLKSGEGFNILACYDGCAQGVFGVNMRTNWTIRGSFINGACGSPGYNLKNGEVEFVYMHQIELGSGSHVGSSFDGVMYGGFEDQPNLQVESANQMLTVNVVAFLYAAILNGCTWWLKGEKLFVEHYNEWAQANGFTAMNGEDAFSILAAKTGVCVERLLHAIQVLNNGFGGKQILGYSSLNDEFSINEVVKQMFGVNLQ

MERS-CoV 3CLpro, sequence (K9N7C7 3248-3553): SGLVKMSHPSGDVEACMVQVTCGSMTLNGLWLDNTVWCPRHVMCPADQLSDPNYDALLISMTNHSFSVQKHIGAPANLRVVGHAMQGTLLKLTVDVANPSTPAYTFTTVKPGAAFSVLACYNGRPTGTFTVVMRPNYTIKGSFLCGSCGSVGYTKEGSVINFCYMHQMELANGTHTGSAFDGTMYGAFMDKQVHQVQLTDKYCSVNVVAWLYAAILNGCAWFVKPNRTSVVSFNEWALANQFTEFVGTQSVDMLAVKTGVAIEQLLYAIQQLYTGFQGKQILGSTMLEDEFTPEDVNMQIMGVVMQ

CC[C@@H](C)[C@H](NC(=O)C1(F)CC1)C(=O)N1C[C@H]2[C@@H]([C@H]1C(=O)NN(C[C@@H]1CCNC1=O)C(=O)[C@@H](F)Cl)C2(C)C [Example 121, N-[(1S,2R)-1-[(1R,2S,5S)-2-[[[(2S)-2-chloro-2-fluoro-acetyl]-[[(3S)-2-oxopyrrolidin-3-yl]methyl]amino]carbamoyl]-6,6-dimethyl-3-azabicyclo[3.1.0]hexane-3-carbonyl]-2-methyl-butyl]-1-fluoro-cyclopropanecarboxamide]
IC50 [1]: 26 nM | IC50 [2]: 131 nM | IC50 [3]: 50 nM | IC50 [4]: 43 nM

CC[C@@H](C)[C@H](NC(=O)[C@H](C)F)C(=O)N1C[C@H]2[C@@H]([C@H]1C(=O)NN(C[C@@H]1CCNC1=O)C(=O)[C@@H](F)Cl)C2(C)C [Example 122, (2S)—N-[(1S,2R)-1-[(1R,2S,5S)-2-[[[(2S)-2-chloro-2-fluoro-acetyl]-[[(3S)-2-oxopyrrolidin-3-yl]methyl]amino]carbamoyl]-6,6-dimethyl-3-azabicyclo[3.1.0]hexane-3-carbonyl]-2-methyl-butyl]-2-fluoro-propanamide]
IC50 [1]: 26 nM | IC50 [2]: 146 nM | IC50 [3]: 36 nM | IC50 [4]: 46 nM

CC[C@@H](C)[C@H](NC(=O)[C@@H](C)F)C(=O)N1C[C@H]2[C@@H]([C@H]1C(=O)NN(C[C@@H]1CCNC1=O)C(=O)[C@@H](F)Cl)C2(C)C [Example 123, (2R)—N-[(1S,2R)-1-[(1R,2S,5S)-2-[[[(2S)-2-chloro-2-fluoro-acetyl]-[[(3S)-2-oxopyrrolidin-3-yl]methyl]amino]carbamoyl]-6,6-dimethyl-3-azabicyclo[3.1.0]hexane-3-carbonyl]-2-methyl-butyl]-2-fluoro-propanamide]
IC50 [1]: 37 nM | IC50 [2]: 146 nM | IC50 [3]: 62 nM | IC50 [4]: 51 nM

CC[C@H](C)[C@H](NC(=O)C1CC(F)(F)C1)C(=O)N1C[C@@H]2CCC[C@@H]2[C@H]1C(=O)NN(C[C@@H]1CCNC1=O)C(=O)[C@H](F)Cl [Example 126, N-[(1S,2S)-1-[(3S,3aS,6aR)-3-[[[(2R)-2-chloro-2-fluoro-acetyl]-[[(3S)-2-oxopyrrolidin-3-yl]methyl]amino]carbamoyl]-3,3a,4,5,6,6a-hexahydro-1H-cyclopenta[c]pyrrole-2-carbonyl]-2-methyl-butyl]-3,3-difluoro-cyclobutanecarboxamide]
IC50 [1]: 10 nM | IC50 [2]: 68 nM | IC50 [3]: 11 nM | IC50 [4]: 28 nM

CC[C@H](C)[C@H](NC(=O)C(F)F)C(=O)N1C[C@@H]2CCC[C@@H]2[C@H]1C(=O)NN(C[C@@H]1CCNC1=O)C(=O)[C@@H](F)Cl [Example 127, N-[(1S,2S)-1-[(3S,3aS,6aR)-3-[[[(2S)-2-chloro-2-fluoro-acetyl]-[[(3S)-2-oxopyrrolidin-3-yl]methyl]amino]carbamoyl]-3,3a,4,5,6,6a-hexahydro-1H-cyclopenta[c]pyrrole-2-carbonyl]-2-methyl-butyl]-2,2-difluoro-acetamide]
IC50 [1]: 10 nM | IC50 [2]: 68 nM | IC50 [3]: 12 nM | IC50 [4]: 35 nM

CC[C@@H](C)[C@H](NC(=O)C1CC(F)(F)C1)C(=O)N1C[C@@H]2CCC[C@@H]2[C@H]1C(=O)NN(C[C@@H]1CCNC1=O)C(=O)[C@H](F)Cl [Example 128, N-[(1S,2R)-1-[(3S,3aS,6aR)-3-[[[(2R)-2-chloro-2-fluoro-acetyl]-[[(3S)-2-oxopyrrolidin-3-yl]methyl]amino]carbamoyl]-3,3a,4,5,6,6a-hexahydro-1H-cyclopenta[c]pyrrole-2-carbonyl]-2-methyl-butyl]-3,3-difluoro-cyclobutanecarboxamide]
IC50 [1]: 11 nM | IC50 [2]: 97 nM | IC50 [3]: 18 nM | IC50 [4]: 36 nM

CCC(CC)[C@H](NC(=O)C1CC1)C(=O)N1C[C@H]2[C@@H]([C@H]1C(=O)NN(C[C@@H]1CCNC1=O)C(=O)[C@H](F)Cl)C2(C)C [Example 129, N-[(1S)-1-[(1R,2S,5S)-2-[[[(2R)-2-chloro-2-fluoro-acetyl]-[[(3S)-2-oxopyrrolidin-3-yl]methyl]amino]carbamoyl]-6,6-dimethyl-3-azabicyclo[3.1.0]hexane-3-carbonyl]-2-ethyl-butyl]cyclopropanecarboxamide]
IC50 [1]: 11 nM | IC50 [2]: 104 nM | IC50 [3]: 16 nM | IC50 [4]: 29 nM

CCC(CC)[C@H](NC(=O)C1CC(F)(F)C1)C(=O)N1C[C@H]2[C@@H]([C@H]1C(=O)NN(C[C@@H]1CCNC1=O)C(=O)[C@H](F)Cl)C2(C)C [Example 130, N-[(1S)-1-[(1R,2S,5S)-2-[[[(2R)-2-chloro-2-fluoro-acetyl]-[[(3S)-2-oxopyrrolidin-3-yl]methyl]amino]carbamoyl]-6,6-dimethyl-3-azabicyclo[3.1.0]hexane-3-carbonyl]-2-ethyl-butyl]-3,3-difluoro-cyclobutanecarboxamide]
IC50 [1]: 12 nM | IC50 [2]: 87 nM | IC50 [3]: 19 nM | IC50 [4]: 32 nM

CCC(CC)[C@H](NC(=O)C(F)F)C(=O)N1C[C@H]2[C@@H]([C@H]1C(=O)NN(C[C@@H]1CCNC1=O)C(=O)[C@H](F)Cl)C2(C)C [Example 131, N-[(1S)-1-[(1R,2S,5S)-2-[[[(2R)-2-chloro-2-fluoro-acetyl]-[[(3S)-2-oxopyrrolidin-3-yl]methyl]amino]carbamoyl]-6,6-dimethyl-3-azabicyclo[3.1.0]hexane-3-carbonyl]-2-ethyl-butyl]-2,2-difluoro-acetamide]
IC50 [1]: 10 nM | IC50 [2]: 158 nM | IC50 [3]: 14 nM | IC50 [4]: 26 nM

CCC(CC)[C@H](NC(=O)C1(F)CC1)C(=O)N1C[C@H]2[C@@H]([C@H]1C(=O)NN(C[C@@H]1CCNC1=O)C(=O)[C@H](F)Cl)C2(C)C [Example 132, N-[(1S)-1-[(1R,2S,5S)-2-[[[(2R)-2-chloro-2-fluoro-acetyl]-[[(3S)-2-oxopyrrolidin-3-yl]methyl]amino]carbamoyl]-6,6-dimethyl-3-azabicyclo[3.1.0]hexane-3-carbonyl]-2-ethyl-butyl]-1-fluoro-cyclopropanecarboxamide]
IC50 [1]: 10 nM | IC50 [2]: 106 nM | IC50 [3]: 14 nM | IC50 [4]: 25 nM

CCC(CC)[C@H](NC(=O)C1(F)CC1)C(=O)N1C[C@H]2[C@@H]([C@H]1C(=O)NN(C[C@@H]1CCNC1=O)C(=O)[C@@H](F)Cl)C2(C)C [Example 133, N-[(1S)-1-[(1R,2S,5S)-2-[[[(2S)-2-chloro-2-fluoro-acetyl]-[[(3S)-2-oxopyrrolidin-3-yl]methyl]amino]carbamoyl]-6,6-dimethyl-3-azabicyclo[3.1.0]hexane-3-carbonyl]-2-ethyl-butyl]-1-fluoro-cyclopropanecarboxamide]
IC50 [1]: 20 nM | IC50 [2]: 106 nM | IC50 [3]: 32 nM | IC50 [4]: 40 nM

CCC(CC)[C@H](NC(=O)C1CC(F)(F)C1)C(=O)N1C[C@@H]2CCC[C@@H]2[C@H]1C(=O)NN(C[C@@H]1CCNC1=O)C(=O)[C@H](F)Cl [Example 134, N-[(1S)-1-[(3S,3aS,6aR)-3-[[[(2R)-2-chloro-2-fluoro-acetyl]-[[(3S)-2-oxopyrrolidin-3-yl]methyl]amino]carbamoyl]-3,3a,4,5,6,6a-hexahydro-1H-cyclopenta[c]pyrrole-2-carbonyl]-2-ethyl-butyl]-3,3-difluoro-cyclobutanecarboxamide]
IC50 [1]: 10 nM | IC50 [2]: 97 nM | IC50 [3]: 14 nM | IC50 [4]: 36 nM

CCC(CC)[C@H](NC(=O)C1CC1)C(=O)N1C[C@@H]2CCC[C@@H]2[C@H]1C(=O)NN(C[C@@H]1CCNC1=O)C(=O)[C@H](F)Cl [Example 135, N-[(1S)-1-[(3S,3aS,6aR)-3-[[[(2R)-2-chloro-2-fluoro-acetyl]-[[(3S)-2-oxopyrrolidin-3-yl]methyl]amino]carbamoyl]-3,3a,4,5,6,6a-hexahydro-1H-cyclopenta[c]pyrrole-2-carbonyl]-2-ethyl-butyl]cyclopropanecarboxamide]
IC50 [1]: 11 nM | IC50 [2]: 131 nM | IC50 [3]: 15 nM | IC50 [4]: 39 nM

CCC(CC)[C@H](NC(=O)C(F)F)C(=O)N1C[C@@H]2CCC[C@@H]2[C@H]1C(=O)NN(C[C@@H]1CCNC1=O)C(=O)[C@H](F)Cl [Example 136, N-[(1S)-1-[(3S,3aS,6aR)-3-[[[(2R)-2-chloro-2-fluoro-acetyl]-[[(3S)-2-oxopyrrolidin-3-yl]methyl]amino]carbamoyl]-3,3a,4,5,6,6a-hexahydro-1H-cyclopenta[c]pyrrole-2-carbonyl]-2-ethyl-butyl]-2,2-difluoro-acetamide]
IC50 [1]: 16 nM | IC50 [2]: 74 nM | IC50 [3]: 15 nM | IC50 [4]: 55 nM

CCC(CC)[C@H](NC(=O)C1(F)CC1)C(=O)N1CC(C)(C)C[C@H]1C(=O)NN(C[C@@H]1CCNC1=O)C(=O)[C@H](F)Cl [Example 138, N-[(1S)-1-[(2S)-2-[[[(2R)-2-chloro-2-fluoro-acetyl]-[[(3S)-2-oxopyrrolidin-3-yl]methyl]amino]carbamoyl]-4,4-dimethyl-pyrrolidine-1-carbonyl]-2-ethyl-butyl]-1-fluoro-cyclopropanecarboxamide]
IC50 [1]: 16 nM | IC50 [2]: 283 nM | IC50 [3]: 25 nM | IC50 [4]: 54 nM

CCC(CC)[C@H](NC(=O)C(F)F)C(=O)N1CC(C)(C)C[C@H]1C(=O)NN(C[C@@H]1CCNC1=O)C(=O)[C@H](F)Cl [Example 139, N-[(1S)-1-[(2S)-2-[[[(2R)-2-chloro-2-fluoro-acetyl]-[[(3S)-2-oxopyrrolidin-3-yl]methyl]amino]carbamoyl]-4,4-dimethyl-pyrrolidine-1-carbonyl]-2-ethyl-butyl]-2,2-difluoro-acetamide]
IC50 [1]: 14 nM | IC50 [2]: 139 nM | IC50 [3]: 18 nM | IC50 [4]: 35 nM

Source: patent US20250059171A1 (Hoffmann-La Roche Inc., priority 2021, published 2025)
